Measurements reported in US20230233569A1 (Revolution Medicines, Inc., priority 2020, published 2023).
Like-named read-outs stand apart in the source and are kept apart here.

Assays:
[1] = system: AsPC-1 (K-Ras G12D); assay: Potency assay: pERK; type: cell-based; conditions: Homo sapiens, ASPC1, read-out: pERK EC50
[2] = target: KRAS G12C (Homo sapiens, UniProt P01116+P62937, G12C); assay: Ras-Raf disruption / FRET / MOA assay (BRAF RBD); type: biochemical; conditions: with Cyclophilin A
Outline: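 TR-FRET read-out after 1.5 h with anti-His Eu-W1024 (10 nM) and anti-GST APC (50 nM), following 3 h at 25 °C of compound (top 30 μM, 3-fold, 10 points) with 25 μM Cyclophilin A, 12.5 nM GMPPNP-loaded K-Ras G12C and 50 nM BRAF RBD; IC50 reported.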

[3] = system: NCI-H358 (K-Ras G12C); assay: CellTiter-Glo cell viability assay; type: cell-based; conditions: Homo sapiens, NCI-H358, 120 h
Outline: (§1)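 Percent-of-DMSO luminescence values (CellTiter-Glo, day 5, plates equilibrated ~30 minutes at ambient temperature) were curve-fitted using a 4-parameter logistic equation; compounds had been added straight into wells containing the cells.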

[4] = target: KRAS G13C (Homo sapiens, UniProt P01116+P62937, G13C); assay: Ras-Raf disruption / FRET / MOA assay (BRAF RBD); type: biochemical; conditions: with Cyclophilin A
Outline: (§2)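 Compound-induced Ras–Cyclophilin A ternary complex disrupting BRAF RBD binding, read as IC50 from reduced TR-FRET ratio relative to DMSO. Final: Ras-GMPPNP 12.5 nM, BRAF RBD 50 nM, Cyclophilin A 25 μM, top compound 30 μM (3-fold, 10 points); 3 h at 25 °C, then 1.5 h with detection antibodies.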

[5] = target: KRAS G12D (Homo sapiens, UniProt P01116+P62937, G12D); assay: Ras-Raf disruption / FRET / MOA assay (BRAF RBD); type: biochemical; conditions: with Cyclophilin A
Outline: as §2

[6] = target: KRAS G12S (Homo sapiens, UniProt P01116+P62937, G12S); assay: Ras-Raf disruption / FRET / MOA assay (BRAF RBD); type: biochemical; conditions: with Cyclophilin A
Outline: as §2

[7] = target: KRAS G13D (Homo sapiens, UniProt P01116+P62937, G13D); assay: Ras-Raf disruption / FRET / MOA assay (BRAF RBD); type: biochemical; conditions: with Cyclophilin A
Outline: as §2

[8] = target: NRAS G12C (Homo sapiens, UniProt P01111+P62937, G12C); assay: Ras-Raf disruption / FRET / MOA assay (BRAF RBD); type: biochemical
Outline: as §2

[9] = target: KRAS G12V (Homo sapiens, UniProt P01116+P62937, G12V); assay: Ras-Raf disruption / FRET / MOA assay (BRAF RBD); type: biochemical; conditions: with Cyclophilin A
Outline: as §2

[10] = target: KRAS WT (Homo sapiens, UniProt P01116+P62937); assay: Ras-Raf disruption / FRET / MOA assay (BRAF RBD); type: biochemical; conditions: with Cyclophilin A
Outline: as §2

[11] = system: AsPC-1 (K-Ras G12D); assay: CellTiter-Glo cell viability assay; type: cell-based; conditions: Homo sapiens, ASPC1, 120 h
Outline: as §1

[12] = target: NRAS WT (Homo sapiens, UniProt P01111+P62937); assay: Ras-Raf disruption / FRET / MOA assay (BRAF RBD); type: biochemical; conditions: NRAS WT; read-out: NRAS WT FRET data IC50
Outline: as §2

[13] = target: NRAS Q61R (Homo sapiens, UniProt P01111+P62937, Q61R); assay: Ras-Raf disruption / FRET / MOA assay (BRAF RBD); type: biochemical; conditions: NRAS Q61R; read-out: NRAS Q61R FRET data IC50
Outline: as §2

[14] = target: KRAS Q61H (Homo sapiens, UniProt P01116+P62937, Q61H); assay: Ras-Raf disruption / FRET / MOA assay (BRAF RBD); type: biochemical; conditions: KRAS Q61H; read-out: KRAS Q61H FRET data IC50
Outline: as §2

[15] = target: NRAS Q61K (Homo sapiens, UniProt P01111+P62937, Q61K); assay: Ras-Raf disruption / FRET / MOA assay (BRAF RBD); type: biochemical; conditions: NRAS Q61K; read-out: NRAS Q61K FRET data IC50
Outline: as §2

[16] = KRAS G12C FRET data IC50, Ras-Raf disruption
[17] = read-out: H358 Cell Viability assay data IC50, K-Ras G12C, 5-day treatment
[18] = KRAS G13C FRET data IC50, Ras-Raf disruption
[19] = KRAS G12D FRET data IC50, Ras-Raf disruption
[20] = KRAS G12S FRET data IC50, Ras-Raf disruption
[21] = KRAS G13D FRET data IC50, Ras-Raf disruption
[22] = NRAS G12C FRET data IC50, NRAS G12C
[23] = KRAS G12V FRET data IC50, Ras-Raf disruption
[24] = KRAS WT FRET data IC50, Ras-Raf disruption
[25] = read-out: AsPC-1 Cell Viability assay data IC50, K-Ras G12D, 5-day treatment
[26] = K-Ras G12C, 5-day treatment, read-out: H358 Cell Viability assay data IC50
[27] = K-Ras G12D, 5-day treatment, read-out: AsPC-1 Cell Viability assay data IC50

Chain of KRAS G13C (P01116 1-169 isoform P01116-2 G13C limits assumed): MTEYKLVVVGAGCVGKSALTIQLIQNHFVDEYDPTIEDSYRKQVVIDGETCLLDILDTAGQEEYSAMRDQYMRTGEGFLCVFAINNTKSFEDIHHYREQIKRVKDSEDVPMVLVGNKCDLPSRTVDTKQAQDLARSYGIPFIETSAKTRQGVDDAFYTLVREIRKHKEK
Chain of KRAS G13C (P62937 whole entry): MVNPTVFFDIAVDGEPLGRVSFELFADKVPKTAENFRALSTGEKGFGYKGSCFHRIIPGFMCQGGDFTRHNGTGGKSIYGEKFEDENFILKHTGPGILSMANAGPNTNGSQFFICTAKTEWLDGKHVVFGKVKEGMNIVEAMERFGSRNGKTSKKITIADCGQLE
Chain of KRAS G13D (P01116 1-169 isoform P01116-2 G13D limits assumed): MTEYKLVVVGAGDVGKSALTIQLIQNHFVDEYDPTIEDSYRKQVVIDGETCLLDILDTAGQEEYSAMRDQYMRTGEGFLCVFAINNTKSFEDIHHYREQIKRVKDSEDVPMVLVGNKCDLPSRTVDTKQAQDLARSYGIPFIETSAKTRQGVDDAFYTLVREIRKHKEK
Chain of KRAS G13D (P62937 whole entry): as the sequence (P62937 whole entry) above
Chain of KRAS G12V (P01116 1-169 isoform P01116-2 G12V limits assumed): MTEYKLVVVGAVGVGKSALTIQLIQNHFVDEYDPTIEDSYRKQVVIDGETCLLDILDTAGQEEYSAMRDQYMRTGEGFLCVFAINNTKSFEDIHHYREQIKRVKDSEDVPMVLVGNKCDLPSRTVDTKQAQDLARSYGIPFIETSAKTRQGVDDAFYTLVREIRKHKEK
Chain of KRAS G12V (P62937 whole entry): as the sequence (P62937 whole entry) above
Chain of KRAS G12S (P01116 1-169 isoform P01116-2 G12S limits assumed): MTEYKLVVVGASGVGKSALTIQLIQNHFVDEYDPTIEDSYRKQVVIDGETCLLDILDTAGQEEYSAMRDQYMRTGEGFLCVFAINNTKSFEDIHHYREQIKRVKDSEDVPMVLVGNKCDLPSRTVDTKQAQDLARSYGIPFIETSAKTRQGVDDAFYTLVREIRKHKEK
Chain of KRAS G12S (P62937 whole entry): as the sequence (P62937 whole entry) above
Chain of KRAS G12D (P01116 1-169 isoform P01116-2 G12D limits assumed): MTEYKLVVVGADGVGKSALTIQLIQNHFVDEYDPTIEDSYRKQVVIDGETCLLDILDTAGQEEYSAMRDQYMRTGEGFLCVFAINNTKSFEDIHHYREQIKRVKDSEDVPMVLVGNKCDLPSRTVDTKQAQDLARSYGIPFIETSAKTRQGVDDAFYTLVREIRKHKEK
Chain of KRAS G12D (P62937 whole entry): as the sequence (P62937 whole entry) above
Chain of KRAS G12C (P01116 1-169 isoform P01116-2 G12C limits assumed): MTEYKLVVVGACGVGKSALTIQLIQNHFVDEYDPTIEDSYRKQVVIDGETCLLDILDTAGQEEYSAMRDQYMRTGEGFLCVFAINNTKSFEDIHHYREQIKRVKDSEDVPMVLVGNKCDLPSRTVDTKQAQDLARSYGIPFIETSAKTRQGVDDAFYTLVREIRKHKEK
Chain of KRAS G12C (P62937 whole entry): as the sequence (P62937 whole entry) above
Chain of KRAS WT (P01116 1-169 isoform P01116-2 limits assumed): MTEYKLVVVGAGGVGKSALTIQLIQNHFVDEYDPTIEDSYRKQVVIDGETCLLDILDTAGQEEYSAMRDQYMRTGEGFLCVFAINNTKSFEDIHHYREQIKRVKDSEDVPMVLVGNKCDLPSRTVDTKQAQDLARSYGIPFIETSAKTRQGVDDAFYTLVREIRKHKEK
Chain of KRAS WT (P62937 whole entry): as the sequence (P62937 whole entry) above
Chain of NRAS G12C (P01111 whole entry G12C): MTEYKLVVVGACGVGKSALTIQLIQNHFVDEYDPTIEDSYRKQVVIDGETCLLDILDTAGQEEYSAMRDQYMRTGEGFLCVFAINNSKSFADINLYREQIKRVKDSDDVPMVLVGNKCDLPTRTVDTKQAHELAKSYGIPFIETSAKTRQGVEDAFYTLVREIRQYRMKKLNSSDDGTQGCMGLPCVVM
Chain of NRAS G12C (P62937 whole entry): as the sequence (P62937 whole entry) above
Chain of NRAS Q61K (P01111 whole entry Q61K): as the sequence (P01111 whole entry G12C) above, with C12G, Q61K counted along it
Chain of NRAS Q61K (P62937 whole entry): as the sequence (P62937 whole entry) above
Chain of NRAS WT (P01111 whole entry): as the sequence (P01111 whole entry G12C) above, with C12G counted along it
Chain of NRAS WT (P62937 whole entry): as the sequence (P62937 whole entry) above
Chain of KRAS Q61H (P01116 1-169 isoform P01116-2 Q61H limits assumed): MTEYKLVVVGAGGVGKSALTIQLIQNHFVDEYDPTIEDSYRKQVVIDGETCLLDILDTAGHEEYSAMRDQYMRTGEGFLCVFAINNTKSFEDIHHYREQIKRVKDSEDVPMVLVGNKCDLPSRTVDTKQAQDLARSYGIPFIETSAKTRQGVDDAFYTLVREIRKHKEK
Chain of KRAS Q61H (P62937 whole entry): as the sequence (P62937 whole entry) above
Chain of NRAS Q61R (P01111 whole entry Q61R): as the sequence (P01111 whole entry G12C) above, with C12G, Q61R counted along it
Chain of NRAS Q61R (P62937 whole entry): as the sequence (P62937 whole entry) above

## CCn1c(-c2cccnc2[C@H](C)OC)c2c3cc(ccc31)-c1cc(O)cc(c1)C[C@H](NC(=O)[C@H](C(C)C)N(C)C(=O)CN(C)C(=O)[C@H]1CN1)C(=O)N1CCC[C@H](N1)C(=O)OCC(C)(C)C2 (single isomer, unassigned) [Example 42A]
[1]
  EC50: < 5000 nM
[2]; [16]
  IC50: < 10 nM
[3]; [17]
  IC50: < 10 nM
[4]; [18]
  IC50: < 10 nM
[5]; [19]
  IC50: 10 to 100 nM
[6]; [20]
  IC50: 10 to 100 nM
[7]; [21]
  IC50: 10 to 100 nM
[8]; [22]
  IC50: < 10 nM
[9]; [23]
  IC50: 10 to 100 nM
[10]; [24]
  IC50: 10 to 100 nM

## CCn1c(-c2cnccc2COC)c2c3cc(ccc31)-c1cc(O)cc(c1)C[C@H](NC(=O)[C@H](C(C)C)N(C)C(=O)CN(C)C(=O)[C@H]1CN1)C(=O)N1CCC[C@H](N1)C(=O)OCC(C)(C)C2 [Example 7]
[1]
  EC50: < 5000 nM
[3]; [17]
  IC50: 10 to 100 nM
[11]; [25]
  IC50: 100 to 1000 nM

## CCn1c(-c2cnccc2COC)c2c3cc(ccc31)-c1cc(O)cc(c1)C[C@H](NC(=O)[C@H](C(C)C)N(C)C(=O)CN(C)C(=O)[C@@H]1CN1)C(=O)N1CCC[C@H](N1)C(=O)OCC(C)(C)C2 [Example 8]
[1]
  EC50: < 5000 nM
[3]; [17]
  IC50: 10 to 100 nM
[11]; [25]
  IC50: 1000 to 10000 nM

## CCn1c(-c2cnccc2COC)c2c3cc(ccc31)-c1cc(O)cc(c1)C[C@H](NC(=O)[C@H](C(C)C)N(C)C(=O)CN(C)C(=O)[C@H]1CN1Cc1ccccc1)C(=O)N1CCC[C@H](N1)C(=O)OCC(C)(C)C2 (some centres unmarked) [Example 9]
[1]
  EC50: < 5000 nM
[3]; [17]
  IC50: 10 to 100 nM
[11]; [25]
  IC50: 1000 to 10000 nM

## CCn1c(-c2cnccc2COC)c2c3cc(ccc31)-c1cc(O)cc(c1)C[C@H](NC(=O)[C@H](C(C)C)N(C)C(=O)CN(C)C(=O)[C@@H]1CN1Cc1ccccc1)C(=O)N1CCC[C@H](N1)C(=O)OCC(C)(C)C2 (some centres unmarked) [Example 10]
[1]
  EC50: < 5000 nM
[3]; [17]
  IC50: 10 to 100 nM
[11]; [25]
  IC50: 1000 to 10000 nM

## CCn1c(-c2cnccc2COC)c2c3cc(ccc31)-c1cc(O)cc(c1)C[C@H](NC(=O)[C@H](C(C)C)N(C)C(=O)CN(C)C(=O)[C@@H]1N[C@H]1c1ccccc1)C(=O)N1CCC[C@H](N1)C(=O)OCC(C)(C)C2 [Example 11]
[1]
  EC50: < 5000 nM
[3]; [17]
  IC50: 100 to 1000 nM
[11]; [25]
  IC50: 1000 to 10000 nM

## CCn1c(-c2cnccc2COC)c2c3cc(ccc31)-c1cc(O)cc(c1)C[C@H](NC(=O)[C@H](C(C)C)N(C)C(=O)CN(C)C(=O)[C@H]1N[C@@H]1c1ccccc1)C(=O)N1CCC[C@H](N1)C(=O)OCC(C)(C)C2 [Example 12]
[1]
  EC50: < 5000 nM
[3]; [17]
  IC50: 100 to 1000 nM
[11]; [25]
  IC50: 100 to 1000 nM

## CCn1c(-c2cccnc2COC)c2c3cc(ccc31)-c1cc(O)cc(c1)C[C@H](NC(=O)[C@H](C(C)C)N(C)C(=O)CCNC(=O)NCCCl)C(=O)N1CCC[C@H](N1)C(=O)OCC(C)(C)C2 [Example 25]
[3]; [17]
  IC50: > 10000 nM

## CCn1c(-c2cnccc2COC)c2c3cc(ccc31)-c1cc(O)cc(c1)C[C@H](NC(=O)[C@H](C(C)C)N(C)C(=O)CN(C)C(=O)[C@@H]1N[C@@H]1C1CC1)C(=O)N1CCC[C@H](N1)C(=O)OCC(C)(C)C2 [Example 103]
[1]
  EC50: < 5000 nM
[3]; [17]
  IC50: 100 to 1000 nM
[11]; [25]
  IC50: 100 to 1000 nM

## CCn1c(-c2cccnc2[C@H](C)OC)c2c3cc(ccc31)-c1cc(O)cc(c1)C[C@H](NC(=O)[C@H](C(C)C)N(C)C(=O)CN(C)C(=O)[C@H]1N[C@@H]1C1CC1)C(=O)N1CCC[C@H](N1)C(=O)OCC(C)(C)C2 [Example 136]
[1]
  EC50: < 5000 nM
[2]; [16]
  IC50: 10 to 100 nM
[3]; [17]
  IC50: < 10 nM
[6]; [20]
  IC50: 10 to 100 nM

## CCC(C)N(C)C(=O)c1cncc(-c2c3c4cc(ccc4n2CC)-c2cc(O)cc(c2)C[C@H](NC(=O)[C@H](C(C)C)N(C)C(=O)CN(C)C(=O)[C@H]2CN2)C(=O)N2CCC[C@H](N2)C(=O)OCC(C)(C)C3)c1 (some centres unmarked) [Example 144]
[1]
  EC50: < 5000 nM
[3]; [17]
  IC50: 10 to 100 nM
[11]; [25]
  IC50: 100 to 1000 nM

## CCn1c(-c2cccnc2[C@H](C)OC)c2c3cc(ccc31)-c1cc(O)cc(c1)C[C@H](NC(=O)[C@H](C(C)C)N(C)C(=O)CN(C)C(=O)[C@H]1CN1CCOC)C(=O)N1CCC[C@H](N1)C(=O)OCC(C)(C)C2 (some centres unmarked) [Example 159]
[2]; [16]
  IC50: 10 to 100 nM
[3]; [17]
  IC50: < 10 nM
[11]; [25]
  IC50: 100 to 1000 nM
[4]; [18]
  IC50: 10 to 100 nM
[5]; [19]
  IC50: 100 to 1000 nM
[6]; [20]
  IC50: 10 to 100 nM
[7]; [21]
  IC50: 100 to 1000 nM
[8]; [22]
  IC50: < 10 nM
[9]; [23]
  IC50: 10 to 100 nM
[10]; [24]
  IC50: 10 to 100 nM

## CCn1c(-c2cccnc2[C@H](C)OC)c2c3cc(ccc31)-c1cc(O)cc(c1)C[C@H](NC(=O)[C@H](C(C)C)N(C)C(=O)[C@@]1(C)CCCN1C(=O)[C@@H]1CN1)C(=O)N1CCC[C@H](N1)C(=O)OCC(C)(C)C2 [Example 241]
[3]; [26]
  IC50: < 10 nM
[11]; [27]
  IC50: 100 to 1000 nM

## CCn1c(-c2cccnc2[C@H](C)OC)c2c3cc(ccc31)-c1cc(cc(C(F)F)c1)C[C@H](NC(=O)[C@H](C1CCCC1)N1CC[C@]3(CCN(C(=O)[C@@H]4N[C@@H]4C4CC4)C3)C1)C(=O)N1CCC[C@H](N1)C(=O)OCC(C)(C)C2 [Example 318]
[2]; Ras-Raf disruption, read-out: KRAS G12C FRET data IC50
  IC50: 100 to 1000 nM
[3]; [26]
  IC50: 100 to 1000 nM
[11]; [27]
  IC50: 100 to 1000 nM
[4]; Ras-Raf disruption, read-out: KRAS G13C FRET data IC50
  IC50: 100 to 1000 nM
[5]; Ras-Raf disruption, read-out: KRAS G12D FRET data IC50
  IC50: 1000 to 10000 nM
[12]
  IC50: 1000 to 10000 nM
[6]; Ras-Raf disruption, read-out: KRAS G12S FRET data IC50
  IC50: 1000 to 10000 nM
[13]
  IC50: 1000 to 10000 nM
[7]; Ras-Raf disruption, read-out: KRAS G13D FRET data IC50
  IC50: 1000 to 10000 nM
[14]
  IC50: 100 to 1000 nM
[8]; NRAS G12C, read-out: NRAS G12C FRET data IC50
  IC50: 1000 to 10000 nM
[9]; Ras-Raf disruption, read-out: KRAS G12V FRET data IC50
  IC50: 1000 to 10000 nM
[15]
  IC50: 1000 to 10000 nM
[10]; Ras-Raf disruption, read-out: KRAS WT FRET data IC50
  IC50: 100 to 1000 nM
